Activation data for 24 compounds are collected here from US9776962B2, “Aromatic compounds with GPR40 agonistic activity” (TAKEDA PHARMACEUTICAL COMPANY LIMITED, priority 2013, dated 2017).

The target of the assay is T1, human GPR40 (Homo sapiens, UniProt O14842).
T1 construct: expressed in transfected cells
T1 sequence (O14842 whole entry): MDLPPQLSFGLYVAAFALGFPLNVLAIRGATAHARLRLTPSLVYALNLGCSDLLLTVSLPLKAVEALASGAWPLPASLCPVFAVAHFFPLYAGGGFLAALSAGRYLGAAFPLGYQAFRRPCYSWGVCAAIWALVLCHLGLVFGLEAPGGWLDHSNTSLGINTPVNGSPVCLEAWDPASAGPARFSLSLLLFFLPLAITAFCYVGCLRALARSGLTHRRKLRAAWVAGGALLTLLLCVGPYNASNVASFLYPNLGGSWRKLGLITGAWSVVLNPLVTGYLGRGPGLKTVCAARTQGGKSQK
As to the kind of experiment: Evaluation of human GPR40 agonist activity with increase in intracellular Ca2+ concentration as an index (FLIPR). The settings on record: test compound 1 μM; CHO(dhfr−) cells stably expressing human GPR40; 100% = 10 μM compound of Example 153, 0% = DMSO. In kind it is cell-based. In short, it runs like this: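 CHO(dhfr−) cells stably expressing full-length human GPR40 were loaded with Ca2+ probe for 1 h at room temperature, then given test compound at 1 μM final. Fluorescence was followed on FLIPR, with activity scaled to a reference agonist at 10 μM (100%) and DMSO (0%).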
For the compound `COc1ccc(C(=O)N(CC2CCOCC2)c2ccccn2)c(N2CCC(COc3cc(C(CC(=O)O)C4CC4)ccn3)CC2)c1` (stereo not drawn) [Example 196, 3-cyclopropyl-3-(2-((1-(5-methoxy-2-(pyridin-2-yl(tetrahydro-2H-pyran-4-ylmethyl)carbamoyl)phenyl)piperidin-4-yl)methoxy)pyridin-4-yl)propanoic acid], the activation at 1 µM was 81%.
To `COc1ccc(C(=O)N(Cc2ccccc2)c2ccccn2)c(N2CCC(COc3cc(C(CC(=O)O)C4CC4)ccn3)CC2)c1` (stereo not drawn) [Example 197, 3-(2-((1-(2-(benzyl(pyridin-2-yl)carbamoyl)-5-methoxyphenyl)piperidin-4-yl)methoxy)pyridin-4-yl)-3-cyclopropylpropanoic acid] belongs 103%; to `COc1ccc(C(=O)N(CC(C)(C)C)C2CCCC2)c(N2CCC(COc3cc(C(CC(=O)O)C4CC4)ccn3)CC2)c1` (stereo not drawn) [Example 198, 3-(2-((1-(2-(cyclopentyl(2,2-dimethylpropyl)carbamoyl)-5-methoxyphenyl)piperidin-4-yl)methoxy)pyridin-4-yl)-3-cyclopropylpropanoic acid], 94%.
To `COc1ccc(C(=O)N2CCOc3ccccc32)c(N2CCC(COc3cc(C(CC(=O)O)C4CC4)ccn3)CC2)c1` (stereo not drawn) [Example 199, 3-cyclopropyl-3-(2-((1-(2-(2,3-dihydro-4H-1,4-benzoxazin-4-ylcarbonyl)-5-methoxyphenyl)piperidin-4-yl)methoxy)pyridin-4-yl)propanoic acid] belongs 93%; to `COc1ccc(C(=O)N2CCOCC2c2ccccc2)c(N2CCC(COc3cc(C(CC(=O)O)C4CC4)ccn3)CC2)c1` (stereo not drawn) [Example 200, 3-cyclopropyl-3-(2-((1-(5-methoxy-2-((3-phenylmorpholin-4-yl)carbonyl)phenyl)piperidin-4-yl)methoxy)pyridin-4-yl)propanoic acid], 89%; to `COc1ccc(C(=O)N2CCOCC2Cc2ccccc2)c(N2CCC(COc3cc(C(CC(=O)O)C4CC4)ccn3)CC2)c1` (stereo not drawn) [Example 201, 3-(2-((1-(2-((3-benzylmorpholin-4-yl)carbonyl)-5-methoxyphenyl)piperidin-4-yl)methoxy)pyridin-4-yl)-3-cyclopropylpropanoic acid], 92%.
To `COc1ccc(C(=O)N2CC(F)(F)OC(F)(F)C2)c(N2CCC(COc3cc(C(CC(=O)O)C4CC4)ccn3)CC2)c1` (stereo not drawn) [Example 202, 3-cyclopropyl-3-(2-((1-(5-methoxy-2-((2,2,6,6-tetrafluoromorpholin-4-yl)carbonyl)phenyl)piperidin-4-yl)methoxy)pyridin-4-yl)propanoic acid] belongs 102%.
`COc1ccc(C(=O)N(CC(C)(C)C)c2cc(C)nc(C)n2)c(N2CCC(COc3cc(C(CC(=O)O)C4CC4)ccn3)CC2)c1` (stereo not drawn) [Example 228, 3-cyclopropyl-3-(2-((1-(2-((2,2-dimethylpropyl) (2,6-dimethylpyrimidin-4-yl)carbamoyl)-5-methoxyphenyl)piperidin-4-yl)methoxy)pyridin-4-yl)propanoic acid] displayed an activation at 1 µM of 99%.
To `COc1ccc(C(=O)N(CC(C)(C)C)c2ccnc(C)n2)c(N2CCC(COc3cc(C(CC(=O)O)C4CC4)ccn3)CC2)c1` (stereo not drawn) [Example 229, 3-cyclopropyl-3-(2-((1-(2-((2,2-dimethylpropyl) (2-methylpyrimidin-4-yl)carbamoyl)-5-methoxyphenyl)piperidin-4-yl)methoxy)pyridin-4-yl)propanoic acid] belongs 101%; to `COc1ccc(C(=O)N(CC(C)(C)C)c2cc(C)ncn2)c(N2CCC(COc3cc(C(CC(=O)O)C4CC4)ccn3)CC2)c1` (stereo not drawn) [Example 230, 3-cyclopropyl-3-(2-((1-(2-((2,2-dimethylpropyl) (6-methylpyrimidin-4-yl)carbamoyl)-5-methoxyphenyl)piperidin-4-yl)methoxy)pyridin-4-yl)propanoic acid], 98%; to `COc1ccc(C(=O)N(CC(C)(C)C)c2cncc(C)c2)c(N2CCC(COc3cc(C(CC(=O)O)C4CC4)ccn3)CC2)c1` (stereo not drawn) [Example 231, 3-cyclopropyl-3-(2-((1-(2-((2,2-dimethylpropyl) (5-methylpyridin-3-yl)carbamoyl)-5-methoxyphenyl)piperidin-4-yl)methoxy)pyridin-4-yl)propanoic acid], 92%.
The same measure for `COc1ccc(C(=O)N(CC(C)(C)C)c2cc(C)cnn2)c(N2CCC(COc3cc(C(CC(=O)O)C4CC4)ccn3)CC2)c1` (stereo not drawn) [Example 232, 3-cyclopropyl-3-(2-((1-(2-((2,2-dimethylpropyl) (5-methylpyridazin-3-yl)carbamoyl)-5-methoxyphenyl)piperidin-4-yl)methoxy)pyridin-4-yl)propanoic acid]: 85%.
The same measure for `COc1ccc(C(=O)N(CC(C)(C)C)C2CCCN(CC(F)(F)F)C2)c(N2CCC(COc3cc(C(CC(=O)O)C4CC4)ccn3)CC2)c1` (stereo not drawn) [Example 233, 3-cyclopropyl-3-(2-((1-(2-((2,2-dimethylpropyl) (1-(2,2,2-trifluoroethyl)piperidin-3-yl)carbamoyl)-5-methoxyphenyl)piperidin-4-yl)methoxy)pyridin-4-yl)propanoic acid]: 85%.
The compound `COc1ccc(C(=O)N(CC(C)(C)C)c2nc(C)ccc2F)c(N2CCC(COc3cc(C(CC(=O)O)C4CC4)ccn3)CC2)c1` (stereo not drawn) [Example 234, 3-cyclopropyl-3-(2-((1-(2-((2,2-dimethylpropyl) (3-fluoro-6-methylpyridin-2-yl)carbamoyl)-5-methoxyphenyl)piperidin-4-yl)methoxy)pyridin-4-yl)propanoic acid] returned an activation at 1 µM of 97%.
The same measure for `COc1ccc(C(=O)N(CC(C)(C)C)c2cncc(C(F)(F)F)c2)c(N2CCC(COc3cc(C(CC(=O)O)C4CC4)ccn3)CC2)c1` (stereo not drawn) [Example 235, 3-cyclopropyl-3-(2-((1-(2-((2,2-dimethylpropyl) (5-(trifluoromethyl)pyridin-3-yl)carbamoyl)-5-methoxyphenyl)piperidin-4-yl)methoxy)pyridin-4-yl)propanoic acid]: 91%; for `COc1ccc(C(=O)N(CC(F)(F)F)c2cncc(C(F)(F)F)c2)c(N2CCC(COc3cc(C(CC(=O)O)C4CC4)ccn3)CC2)c1` (stereo not drawn) [Example 236, 3-cyclopropyl-3-(2-((1-(5-methoxy-2-((2,2,2-trifluoroethyl) (5-(trifluoromethyl)pyridin-3-yl)carbamoyl)-phenyl)piperidin-4-yl)methoxy)pyridin-4-yl)propanoic acid]: 91%; for `COc1ccc(C(=O)N(CC2CC2)c2nccc(C(F)(F)F)n2)c(N2CCC(COc3cc(C(CC(=O)O)C4CC4)ccn3)CC2)c1` (stereo not drawn) [Example 237, 3-cyclopropyl-3-(2-((1-(2-((cyclopropylmethyl) (4-(trifluoromethyl)-pyrimidin-2-yl)carbamoyl)-5-methoxyphenyl)piperidin-4-yl)methoxy)pyridin-4-yl)propanoic acid]: 98%.
To `COc1ccc(C(=O)N(CC(F)(F)F)c2cc(C)nc(C)n2)c(N2CCC(COc3cc(C(CC(=O)O)C4CC4)ccn3)CC2)c1` (stereo not drawn) [Example 238, 3-cyclopropyl-3-(2-((1-(2-((2,6-dimethylpyrimidin-4-yl) (2,2,2-trifluoroethyl)-carbamoyl)-5-methoxyphenyl)piperidin-4-yl)methoxy)pyridin-4-yl)propanoic acid] belongs 101%; to `COc1ccc(C(=O)N(CC(F)(F)F)c2ccnc(C)n2)c(N2CCC(COc3cc(C(CC(=O)O)C4CC4)ccn3)CC2)c1` (stereo not drawn) [Example 239, 3-cyclopropyl-3-(2-((1-(5-methoxy-2-((2-methyl-pyrimidin-4-yl) (2,2,2-trifluoroethyl)carbamoyl)-phenyl)piperidin-4-yl)methoxy)pyridin-4-yl)propanoic acid], 100%.
The same measure for `COc1ccc(C(=O)N(CC(F)(F)F)c2cc(C)ncn2)c(N2CCC(COc3cc(C(CC(=O)O)C4CC4)ccn3)CC2)c1` (stereo not drawn) [Example 240, 3-cyclopropyl-3-(2-((1-(5-methoxy-2-((6-methylpyrimidin-4-yl)-(2,2,2-trifluoroethyl)-carbamoyl)phenyl)-piperidin-4-yl)methoxy)-pyridin-4-yl)propanoic acid]: 99%.
`COc1ccc(C(=O)Nc2cccc(C)n2)c(N2CCC(COc3cc(C(CC(=O)O)C4CC4)ccn3)CC2)c1` (stereo not drawn) [Example 241, 3-cyclopropyl-3-(2-((1-(5-methoxy-2-((6-methylpyridin-2-yl)-carbamoyl)phenyl)-piperidin-4-yl)methoxy)pyridin-4-yl)propanoic acid] had an activation at 1 µM of 95%.
Compound `COc1ccc(C(=O)Nc2ccccn2)c(N2CCC(COc3cc(C(CC(=O)O)C4CC4)ccn3)CC2)c1` (stereo not drawn) [Example 242, 3-cyclopropyl-3-(2-((1-(5-methoxy-2-(pyridin-2-ylcarbamoyl)phenyl)piperidin-4-yl)methoxy)pyridin-4-yl)propanoic acid] returned an activation at 1 µM of 93%.
`COc1ccc(C(=O)N(CC(C)(C)C)c2cc(C)cc(C)n2)c(N2CCC(COc3cc(C(CC(=O)O)C4CC4)ccn3)CC2)c1` (stereo not drawn) [Example 243, 3-cyclopropyl-3-(2-((1-(2-((2,2-dimethylpropyl)(4,6-dimethylpyridin-2-yl)carbamoyl)-5-methoxyphenyl)piperidin-4-yl)methoxy)pyridin-4-yl)propanoic acid] gave an activation at 1 µM of 101%.
The same measure for `COc1ccc(C(=O)N(CC2CC2)c2cc(C)cc(C)n2)c(N2CCC(COc3cc(C(CC(=O)O)C4CC4)ccn3)CC2)c1` (stereo not drawn) [Example 244, 3-cyclopropyl-3-(2-((1-(2-((cyclopropylmethyl)(4,6-dimethylpyridin-2-yl)carbamoyl)-5-methoxyphenyl)piperidin-4-yl)methoxy)pyridin-4-yl)propanoic acid]: 99%.
